Test results published in the NIST ThermoML archive (doi:10.1016/j.jct.2010.08.019).

Experiment: xn = mol fraction of the nth substance listed
Details: for surface tension liquid-gas: Wilhelmy-plate method; for viscosity / mass density: 101 kPa, Liquid; for viscosity: Falling or rolling sphere viscometry; for mass density: Vibrating tube method

C1CCOCC1 [tetrahydropyran] + CC(C)CC(C)(C)C
Details	mass density, 313.15 K [kg/m3]	mass density, 323.15 K [kg/m3]	surface tension liquid-gas, 313.15 K [mN/m]	surface tension liquid-gas, 323.15 K [mN/m]	viscosity, 313.15 K [mPa·s]	viscosity, 323.15 K [mPa·s]
x1 = 0.0501	680.92	672.44	17.1	16.4	0.407	0.366
x1 = 0.1002	686.85	678.3	17.3	16.6	0.411	0.369
x1 = 0.1501	693.02	684.41	17.5	16.7	0.416	0.372
x1 = 0.1999	699.48	690.79	17.7	17	0.422	0.377
x1 = 0.2501	706.27	697.5	17.9	17.2	0.429	0.383
x1 = 0.3	713.35	704.51	18.1	17.3	0.437	0.39
x1 = 0.3499	720.78	711.86	18.4	17.5	0.444	0.398
x1 = 0.4002	728.64	719.63	18.6	17.8	0.453	0.406
x1 = 0.45	–	727.72	–	18	–	0.415
x1 = 0.4502	736.83	–	18.9	–	0.463	–
x1 = 0.4999	745.4	–	19.1	–	0.473	–
x1 = 0.5002	–	736.27	–	18.3	–	0.424
x1 = 0.5499	754.47	–	19.4	–	0.484	–
x1 = 0.55	–	745.22	–	18.5	–	0.433
x1 = 0.5997	–	754.63	–	18.8	–	0.443
x1 = 0.6	764.05	–	19.7	–	0.496	–
x1 = 0.65	774.13	764.68	20.1	19.2	0.509	0.454
x1 = 0.6998	784.75	775.17	20.6	19.6	0.523	0.466
x1 = 0.75	796.05	786.37	21.2	20.1	0.538	0.479
x1 = 0.8001	808	798.2	21.7	20.7	0.554	0.493
x1 = 0.8501	820.66	810.77	22.4	21.3	0.573	0.508
x1 = 0.9001	834.12	–	23.2	–	0.596	–
x1 = 0.9002	–	824.1	–	22.1	–	0.523
x1 = 0.9498	848.37	–	24.1	–	0.624	–
x1 = 0.95	–	838.27	–	22.9	–	0.541
x1 = 1	863.76	853.46	25.1	23.8	0.658	0.565
